Test results: ChEMBL document CHEMBL5126604, “Design, Synthesis, and Biological Evaluation of Pyrrole-2-carboxamide Derivatives as Mycobacterial Membrane Protein Large 3 Inhibitors for Treating Drug-Resistant Tuberculosis” (J Med Chem, 2022)
≈ marks a conversion by molar mass, not a printed value.

Columns and labels:
Vero = experiment: Cytotoxicity against African green monkey vero cells assessed as reduction in cell viability measured after 48 hrs by MTT assay; type: functional, cell-based; conditions: Chlorocebus sabaeus
[1] = Metabolic stability in mouse liver microsomes at 0.5 uM measured after 15 to 120 mins in presence of NADPH by LC-MS/MS analysis; type: ADME, Microsome; conditions: time 15-120 min
[2] = Metabolic stability in mouse liver microsomes at 0.5 uM measured after 15 to 120 mins in absence of NADPH by LC-MS/MS analysis; type: ADME, Microsome; conditions: time 15-120 min
in vitro = conditions: monkey, Vero cells
Description: Selectivity index, ratio of IC50 for African green monkey vero cells to MIC for Mycobacterium tuberculosis H37Rv

[3] = system: Mycobacterium tuberculosis; experiment: microbe, parasite or virus in culture; conditions: H37Rv, 168 h
Description: Antimycobacterial activity against Mycobacterium tuberculosis H37Rv assessed as inhibition of bacterial growth measured after 7 days by microplate alamar blue assay

[4] = system: Mycolicibacterium smegmatis; experiment: Antimycobacterial activity against Mycobacterium smegmatis harboring MsmgdeltammpL3/pMVGHI-mmpL3tb mutant assessed as reduction in bacterial growth measured after 16 hrs […]; type: functional
[5] = system: Mycolicibacterium smegmatis; experiment: Antimycobacterial activity against Mycobacterium smegmatis harboring MsmgdeltammpL3/pMVGHI-mmpL3tb G253E mutant assessed as reduction in bacterial growth measured after 16 hrs […]; type: functional
[6] = system: Mycobacterium tuberculosis; experiment: Antimycobacterial activity against Mycobacterium tuberculosis mc2 6206 assessed as decrease in trehalose dimycolate measured after 16 hrs using [14C]acetate by TLC analysis; type: functional, organism-based; conditions: DDE = dose-dependent effect
[7] = system: Mycobacterium tuberculosis; experiment: Antimycobacterial activity against Mycobacterium tuberculosis mc2 6206 assessed as decrease in mycolic acid transfer to cell wall arabinogalactan measured after 16 hrs using [14C]acetate by TLC analysis; type: functional, organism-based; conditions: dose 0.0625-1 µg/ml, DDE = dose-dependent effect
[8] = system: Mycobacterium tuberculosis; experiment: microbe, parasite or virus in culture; conditions: H37Rv mc2 6206, 16 h
Description: Antimycobacterial activity against Mycobacterium tuberculosis H37Rv mc2 6206 assessed as reduction in bacterial growth measured after 16 hrs by TLC analysis

For O=C(NC1C2CC3CC(C2)CC1C3)c1cc(-c2ccc(F)cc2)c[nH]1 (stereo not given), the IC50 (Vero) was 12.6 µg/mL (≈ 37.2 µM), the Stability [1] was 70.4% and the Stability [2] was “Stable”. It also gave a selectivity ratio (in vitro) of 788 and an MIC90 [3] of less than 0.016 µg/mL.

O=C(NC1C2CC3CC(C2)CC1C3)c1cc(-c2ccc(C(F)(F)F)cc2C(F)(F)F)c[nH]1 (stereo not given) showed an MIC90 [3] of 1.08 µg/mL (≈ 2.37 µM).

In the case of NNC(=O)c1ccncc1 [ISONIAZID], the MIC90 [3] is reported as 0.04 µg/mL (≈ 0.292 µM).

In the case of COc1cc(F)ccc1-c1c[nH]c(C(=O)NC2CCCCCCC2)c1, the Stability [1] is reported as 9.03%, the Stability [2] is reported as “Stable” and the MIC90 [3] is reported as less than 0.016 µg/mL.

O=C(c1cc(-c2ccc(Cl)cc2Cl)c[nH]1)N1CCCCC1 gave an MIC90 [3] of 7.7 µg/mL (≈ 23.8 µM).

In the case of O=C(NC1C2CC3CC(C2)CC1C3)c1cc(-c2ccc(F)cc2F)c[nH]1 (stereo not given), the Stability [1] is reported as 61.4%, the Stability [2] is reported as “Stable” and the selectivity ratio (in vitro) is reported as 900. It also gave an MIC90 [3] of less than 0.016 µg/mL.

With O=C(NC1C2CC3CC(C2)CC1C3)c1cc(-c2ccc(Cl)cc2Cl)c[nH]1 (stereo not given) the MIC90 [4] was 1 µg/mL (≈ 2.57 µM), the “MIC=>90” value [5] was greater than 4 µg/mL and the inhibition [6] was “Dde”. For the same compound, the inhibition [7] was “Dde”, the MIC90 [8] was 0.25 µg/mL (≈ 0.642 µM) and the MIC90 [3] was 0.06 µg/mL (≈ 0.154 µM).

For CN1CCN(C(=O)c2cc(-c3ccc(Cl)cc3Cl)c[nH]2)CC1, the MIC90 [3] was 27.4 µg/mL (≈ 81 µM).

With CC1(C)CCC(NC(=O)c2cc3c(Cl)cc(Cl)cc3[nH]2)CC1 the IC50 (Vero) was 10.5 µg/mL (≈ 30.9 µM), the selectivity ratio (in vitro) was 700 and the MIC90 [3] was 0.015 µg/mL (≈ 0.0442 µM).

For COc1ccc(-c2c[nH]c(C(=O)NC3C4CC5CC(C4)CC3C5)c2)c(OC)c1 (stereo not given), the IC50 (Vero) was greater than 64 µg/mL and the MIC90 [3] was 0.24 µg/mL (≈ 0.631 µM).

For COc1ncc(F)cc1-c1c[nH]c(C(=O)NC2C3CC4CC(C3)CC2C4)c1 (stereo not given), the IC50 (Vero) was greater than 64 µg/mL, the Stability [1] was 1.97% and the Stability [2] was “Stable”. For the same compound, the MIC90 [3] was 0.016 µg/mL (≈ 0.0433 µM).

O=C(NC1CCCCCCC1)c1cc(-c2ccncc2Cl)c[nH]1 showed an MIC90 [3] of 0.05 µg/mL (≈ 0.151 µM).

With O=C(NC1C2CC3CC(C2)CC1C3)c1cc(-c2ccc(O)cc2F)c[nH]1 (stereo not given) the MIC90 [3] was greater than 32 µg/mL.

With O=C(NC1C2CC3CC(C2)CC1C3)c1cc(-c2ccccc2Cl)c[nH]1 (stereo not given) the IC50 (Vero) was greater than 64 µg/mL and the MIC90 [3] was 0.24 µg/mL (≈ 0.676 µM).

Work on Cc1ccc(-c2c[nH]c(C(=O)NC3C4CC5CC(C4)CC3C5)c2)c(C)c1 (stereo not given) yielded an MIC90 [3] of 0.97 µg/mL (≈ 2.78 µM).

Compound O=C(Nc1ccccc1)c1cc(-c2ccc(Cl)cc2Cl)c[nH]1 has an MIC90 [3] greater than 32 µg/mL.

In the case of O=C(NC1CCC(F)(F)CC1)c1cc(-c2ccc(Cl)cc2Cl)c[nH]1, the MIC90 [3] is reported as 6.1 µg/mL (≈ 16.3 µM).

With O=C(NC1CCCCCCC1)c1cc(-c2ccc(F)cc2F)c[nH]1 the MIC90 [4] was 0.25 µg/mL (≈ 0.752 µM), the “MIC=>90” value [5] was 2 µg/mL (≈ 6.02 µM) and the inhibition [6] was “Dde”. The inhibition [7] was “Dde”, the MIC90 [8] was 0.125 µg/mL (≈ 0.376 µM) and the MIC90 [3] was less than 0.016 µg/mL.

With O=C(NC1CCCCCCC1)c1cc(-c2ccc(F)nc2F)c[nH]1 the Stability [1] was 25.9%, the Stability [2] was “Stable” and the MIC90 [4] was 0.5 µg/mL (≈ 1.5 µM). For the same compound, the “MIC=>90” value [5] was 4 µg/mL (≈ 12 µM), the inhibition [6] was “Dde” and the inhibition [7] was “Dde”. It also gave an MIC90 [8] of 0.25 µg/mL (≈ 0.75 µM) and an MIC90 [3] of 0.03 µg/mL (≈ 0.09 µM).

In the case of O=C(NC1C2CC3CC(C2)CC1C3)c1cc(-c2ccc(Cl)nc2)c[nH]1 (stereo not given), the IC50 (Vero) is reported as greater than 64 µg/mL and the MIC90 [3] is reported as 0.24 µg/mL (≈ 0.674 µM).

For CC1(C)CCC(NC(=O)c2cc(-c3ccc(Cl)cc3Cl)c[nH]2)CC1, the MIC90 [3] was 0.5 µg/mL (≈ 1.37 µM).

Work on O=C(c1cc(-c2ccc(Cl)cc2Cl)c[nH]1)N1CCCC1 yielded an MIC90 [3] of 9.8 µg/mL (≈ 31.7 µM).

Compound Cn1cc(-c2ccc(Cl)cc2Cl)cc1C(=O)NC1C2CC3CC(C2)CC1C3 (stereo not given) has an MIC90 [3] of 3.7 µg/mL (≈ 9.17 µM).

With O=C(NC1C2CC3CC(C2)CC1C3)c1cc(-c2ccccn2)c[nH]1 (stereo not given) the IC50 (Vero) was 47.3 µg/mL (≈ 147 µM), the selectivity ratio (in vitro) was 394 and the MIC90 [3] was 0.12 µg/mL (≈ 0.373 µM).

Work on O=C(NC1CCCCCCC1)c1cc(-c2ccc(Cl)cc2Cl)c[nH]1 yielded an MIC90 [3] of 0.23 µg/mL (≈ 0.63 µM).

Work on COc1ccc(-c2c[nH]c(C(=O)NC3C4CC5CC(C4)CC3C5)c2)cn1 (stereo not given) yielded a selectivity ratio (in vitro) of 137 and an MIC90 [3] of 0.25 µg/mL (≈ 0.711 µM).

O=C(NC1CCCCCCC1)c1cc(-c2ccc(F)cc2)c[nH]1 gave an MIC90 [3] of 0.03 µg/mL (≈ 0.0954 µM).

COc1ccc(-c2c[nH]c(C(=O)NC3C4CC5CC(C4)CC3C5)c2)c(F)c1 (stereo not given) gave an IC50 (Vero) greater than 64 µg/mL and an MIC90 [3] of 0.47 µg/mL (≈ 1.28 µM).

Compound O=C(c1cc(-c2ccc(Cl)cc2Cl)c[nH]1)N1CCOCC1 has an MIC90 [3] of 14.7 µg/mL (≈ 45.2 µM).

Compound O=C(NC12CC3CC(CC(C3)C1)C2)c1cc(-c2ccc(F)cc2)c[nH]1 has an MIC90 [3] of less than 0.016 µg/mL.

Work on O=C(NC1C2CC3CC(C2)CC1C3)c1cc(-c2ccncc2F)c[nH]1 (stereo not given) yielded a selectivity ratio (in vitro) of 415 and an MIC90 [3] of 0.11 µg/mL (≈ 0.324 µM).
